Test results: ChEMBL document CHEMBL4825668, “Discovery of Novel Pyrimidine-Based Capsid Assembly Modulators as Potent Anti-HBV Agents” (J Med Chem, 2021)
Calls of active or inactive are those of the source. No cut-off for these calls is given here.

How the values were obtained:
[1] = AUC(infinity) in ICR mouse at 10 mg/kg, iv measured after 1440 mins by HPLC analysis; type: ADME, organism-based; design: route intravenous, time 1440 min, dose 10 mg/kg; settings: in vivo
[2] = AUClast in ICR mouse at 10 mg/kg, iv measured after 1440 mins by HPLC analysis; type: ADME, organism-based; design: route intravenous, dose 10 mg/kg, time 1440 min; settings: in vivo
[3] = Clearance in ICR mouse at 10 mg/kg, iv measured after 1440 mins by HPLC analysis; type: ADME, organism-based; settings: in vivo
[4] = Half life in ICR mouse at 10 mg/kg, iv measured after 1440 mins by HPLC analysis; type: ADME, organism-based; settings: in vivo
[5] = Volume of distribution at steady state in ICR mouse at 10 mg/kg, iv measured after 1440 mins by HPLC analysis; type: ADME, organism-based; settings: in vivo, read-out: Vdss
[6] = AUC(infinity) in ICR mouse at 10 mg/kg, po measured after 1440 mins by HPLC analysis; type: ADME, organism-based; design: route oral, dose 10 mg/kg, time 1440 min; settings: in vivo
[7] = AUClast in ICR mouse at 10 mg/kg, po measured after 1440 mins by HPLC analysis; type: ADME, organism-based; design: route oral, time 1440 min, dose 10 mg/kg; settings: in vivo
[8] = Cmax in ICR mouse at 10 mg/kg, po measured after 1440 mins by HPLC analysis; type: ADME, organism-based; design: route oral, dose 10 mg/kg, time 1440 min; settings: in vivo
[9] = Half life in ICR mouse at 10 mg/kg, po measured after 1440 mins by HPLC analysis; type: ADME, organism-based; settings: in vivo
[10] = Tmax in ICR mouse at 10 mg/kg, po measured after 1440 mins by HPLC analysis; type: ADME, organism-based; settings: in vivo
[11] = Oral bioavailability in ICR mouse at 10 mg/kg measured after 1440 mins by HPLC analysis; type: ADME, organism-based; settings: in vivo
Hepatitis B virus [12] = assay: Antiviral activity against Human hepatitis B virus in Huh-7 cells assessed as reduction in intracellular viral DNA level incubated for 36 hrs by qPCR analysis; type: functional, organism-based; settings: Huh-7, 36 h
[13] = Metabolic stability in mouse liver microsomes assessed as compound remaining at […] incubated for 30 mins by LC/MS/MS analysis; type: ADME, Microsome; settings: read-out: Stabilty
[14] = Metabolic stability in rat liver microsomes assessed as compound remaining at […] incubated for 30 mins by LC/MS/MS analysis; type: ADME, Microsome; settings: read-out: Stabilty
[15] = Metabolic stability in human liver microsomes assessed as compound remaining at […] incubated for 30 mins by LC/MS/MS analysis; type: ADME, Microsome; settings: read-out: Stabilty
[16] = Permeability of the compound at pH 7.4 by PAMPA; type: ADME
CYP1A2 = biological target: T1, CYP1A2 (Homo sapiens, UniProt P05177); assay: Inhibition of human recombinant CYP1A2 using alpha-naphthoflavone […] at 10 uM by fluorometric assay; type: ADME
T1 sequence (P05177 whole entry): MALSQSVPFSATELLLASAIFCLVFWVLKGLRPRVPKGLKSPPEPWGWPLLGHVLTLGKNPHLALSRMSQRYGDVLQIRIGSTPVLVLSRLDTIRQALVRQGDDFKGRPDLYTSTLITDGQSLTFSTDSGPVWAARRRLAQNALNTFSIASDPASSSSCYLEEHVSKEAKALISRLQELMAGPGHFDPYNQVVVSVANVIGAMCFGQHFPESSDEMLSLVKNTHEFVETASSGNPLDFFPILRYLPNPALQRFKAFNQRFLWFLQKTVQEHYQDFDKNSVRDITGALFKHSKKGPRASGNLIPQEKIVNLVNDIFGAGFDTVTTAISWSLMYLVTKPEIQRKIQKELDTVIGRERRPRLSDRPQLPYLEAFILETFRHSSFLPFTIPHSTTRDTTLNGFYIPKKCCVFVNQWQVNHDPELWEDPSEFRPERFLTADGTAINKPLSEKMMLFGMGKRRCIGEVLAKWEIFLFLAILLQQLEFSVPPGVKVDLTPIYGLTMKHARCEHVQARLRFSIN

CYP2C9 = CYP2C9 (Homo sapiens, UniProt P11712); assay: Inhibition of human recombinant CYP2C9 using sulfaphenazole […] at 10 uM by fluorometric assay; type: ADME
CYP2C19 = CYP2C19 (Homo sapiens, UniProt P33261); assay: Inhibition of human recombinant CYP2C19 using amitriptyline […] at 10 uM by fluorometric assay; type: ADME
CYP2D6 = CYP2D6 (Homo sapiens, UniProt P10635); assay: Inhibition of human recombinant CYP2D6 using quinidine […] at 10 uM by fluorometric assay; type: ADME
CYP3A4 = CYP3A4 (Homo sapiens, UniProt P08684); assay: Inhibition of human recombinant CYP3A4 using ketoconazole […] at 10 uM by fluorometric assay; type: ADME
hERG (KCNH2) = hERG (KCNH2) (Homo sapiens, UniProt Q12809); assay: Inhibition of human ERG at 40 uM incubated for 2 to 3 hrs by ligand binding assay
[17] = biological target: Voltage-gated inwardly rectifying potassium channel KCNH2 (Homo sapiens, UniProt Q12809); assay: Inhibition of human ERG expressed in HEK cells at -80 mV holding potential by patch clamp assay relative to control; type: cell-based
[18] = Mutagenicity in Salmonella typhimurium in presence of S9 fraction by Ames test; type: toxicity, subcellular; settings: salmonella enterica subsp. enterica serovar typhimurium
[19] = Toxicity in BALB/c mouse assessed as changes in blood up to 400 mg/kg, po for 2 weeks; type: organism-based; settings: in vivo, 336 h
[20] = Toxicity in BALB/c mouse assessed as changes in urine up to 400 mg/kg, po for 2 weeks; type: organism-based; settings: in vivo, 336 h
[21] = AUC(infinity) in ICR mouse at 5 mg/kg, iv measured after 1440 mins by HPLC analysis; type: ADME, organism-based; design: route intravenous, time 1440 min, dose 5 mg/kg; settings: in vivo
[22] = AUClast in ICR mouse at 5 mg/kg, iv measured after 1440 mins by HPLC analysis; type: ADME, organism-based; design: route intravenous, dose 5 mg/kg, time 1440 min; settings: in vivo
[23] = Clearance in ICR mouse at 5 mg/kg, iv measured after 1440 mins by HPLC analysis; type: ADME, organism-based; settings: in vivo
[24] = Cmax in ICR mouse at 5 mg/kg, iv measured after 1440 mins by HPLC analysis; type: ADME, organism-based; design: route intravenous, dose 5 mg/kg, time 1440 min; settings: in vivo
[25] = Half life in ICR mouse at 5 mg/kg, iv measured after 1440 mins by HPLC analysis; type: ADME, organism-based; settings: in vivo
[26] = Volume of distribution at steady state in ICR mouse at 5 mg/kg, iv measured after 1440 mins by HPLC analysis; type: ADME, organism-based; settings: in vivo, read-out: Vdss
Hepatitis B virus [27] = assay: Inhibition of HBV recombinant Cp149 expressed in Escherichia coli BL21 (DE3) assessed as inhibition of capsid assembly at 1 uM incubated for 1 hr by immune blotting analysis relative to control
Hepatitis B virus [28] = assay: Inhibition of HBV recombinant Cp149 expressed in Escherichia coli BL21 (DE3) assessed as inhibition of capsid assembly at 0.1 uM incubated for 1 hr by immune blotting analysis relative to control
Hepatitis B virus [29] = assay: Antiviral activity against Human hepatitis B virus in Huh-7 cells assessed as decrease in viral DNA level incubated for 36 hrs by qPCR analysis; type: functional, organism-based
Hepatitis B virus [30] = assay: Antiviral activity against Human hepatitis B virus in Huh-7 cells assessed as decrease in intracellular viral DNA accumulation incubated for 36 hrs by qPCR analysis; type: functional, organism-based
Hepatitis B virus [31] = assay: Antiviral activity against Human hepatitis B virus in Huh-7 cells assessed as reduction in HBsAg level by ELISA; type: functional, organism-based
Huh-7 [32] = assay: Inhibition of HBV recombinant Cp149 expressed in Huh-7 cells assessed as assembled HBV core protein fraction at 1 uM incubated for 1 hr by sucrose gradient analysis; type: cell-based; settings: Hepatitis B virus
Huh-7 [33] = assay: Inhibition of HBV recombinant Cp149 expressed in Huh-7 cells assessed as inhibition of secretion of particles containing viral DNA at 1 uM incubated for 1 hr by immunoblot analysis; type: cell-based; settings: Hepatitis B virus
Hepatitis B virus [34] = assay: Antiviral activity against Human hepatitis B virus infected in humanized liver uPA SCID mouse model assessed as decrease in serum viral DNA at 40 mg/kg, po daily measured every week by qPCR analysis; type: functional, organism-based
Hepatitis B virus [35] = assay: Antiviral activity against Human hepatitis B virus infected in humanized liver uPA SCID mouse model assessed as change in serum HBsAg at 40 mg/kg, po daily measured every week by ELISA; type: functional, organism-based
Hepatitis B virus [36] = assay: Antiviral activity against Human hepatitis B virus infected in humanized liver uPA SCID mouse model assessed as change in serum HBeAg at 40 mg/kg, po daily measured every week by ELISA; type: functional, organism-based
Hepatitis B virus [37] = assay: Antiviral activity against Human hepatitis B virus infected in humanized liver uPA SCID mouse model assessed as reduction in HBV core protein at 40 mg/kg, po daily measured after 35 days by immunohistochemical analysis; type: functional, organism-based; settings: time 35.0 day
Hepatitis B virus [38] = assay: Antiviral activity against Human hepatitis B virus infected in hydrodynamic injection C57BL/6 mouse model assessed as reduction in viral DNA in serum up to 120 mg/kg, po daily measured after 5 days by qPCR analysis; type: functional, organism-based; settings: dose mg/kg <=120, time 5.0 day
Hepatitis B virus [39] = assay: Antiviral activity against Human hepatitis B virus infected in hydrodynamic injection C57BL/6 mouse model assessed as reduction in serum HBsAg up to 120 mg/kg, po daily by ELISA; type: functional, organism-based; settings: dose mg/kg <=120

Sequence of CYP2C9 (P11712 whole entry): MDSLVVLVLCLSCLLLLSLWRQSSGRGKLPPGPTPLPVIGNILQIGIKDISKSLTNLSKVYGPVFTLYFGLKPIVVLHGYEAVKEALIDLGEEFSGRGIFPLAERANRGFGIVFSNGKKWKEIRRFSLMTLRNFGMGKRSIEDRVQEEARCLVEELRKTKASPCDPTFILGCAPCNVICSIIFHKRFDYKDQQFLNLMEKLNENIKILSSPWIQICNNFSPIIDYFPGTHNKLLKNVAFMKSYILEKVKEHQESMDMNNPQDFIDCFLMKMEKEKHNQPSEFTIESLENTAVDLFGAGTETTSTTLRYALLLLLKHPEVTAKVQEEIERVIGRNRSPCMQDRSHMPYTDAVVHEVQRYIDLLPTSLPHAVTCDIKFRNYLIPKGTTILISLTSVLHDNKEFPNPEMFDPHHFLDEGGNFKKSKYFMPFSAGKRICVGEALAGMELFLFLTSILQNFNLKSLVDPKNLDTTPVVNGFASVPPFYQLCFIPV
Sequence of CYP2D6 (P10635 whole entry): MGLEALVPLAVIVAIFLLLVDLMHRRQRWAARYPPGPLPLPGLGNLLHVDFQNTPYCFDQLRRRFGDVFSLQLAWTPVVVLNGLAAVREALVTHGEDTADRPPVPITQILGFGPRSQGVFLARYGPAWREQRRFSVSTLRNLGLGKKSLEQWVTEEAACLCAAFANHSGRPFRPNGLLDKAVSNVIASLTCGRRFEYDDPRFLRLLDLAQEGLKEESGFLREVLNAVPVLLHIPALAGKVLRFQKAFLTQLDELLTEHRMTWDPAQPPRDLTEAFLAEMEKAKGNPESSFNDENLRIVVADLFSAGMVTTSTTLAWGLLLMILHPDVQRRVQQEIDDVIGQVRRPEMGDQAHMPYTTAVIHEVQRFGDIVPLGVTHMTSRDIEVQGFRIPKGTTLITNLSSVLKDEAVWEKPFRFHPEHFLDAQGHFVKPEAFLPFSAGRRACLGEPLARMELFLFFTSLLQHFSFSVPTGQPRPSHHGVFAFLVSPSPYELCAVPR
Sequence of CYP2C19 (P33261 whole entry): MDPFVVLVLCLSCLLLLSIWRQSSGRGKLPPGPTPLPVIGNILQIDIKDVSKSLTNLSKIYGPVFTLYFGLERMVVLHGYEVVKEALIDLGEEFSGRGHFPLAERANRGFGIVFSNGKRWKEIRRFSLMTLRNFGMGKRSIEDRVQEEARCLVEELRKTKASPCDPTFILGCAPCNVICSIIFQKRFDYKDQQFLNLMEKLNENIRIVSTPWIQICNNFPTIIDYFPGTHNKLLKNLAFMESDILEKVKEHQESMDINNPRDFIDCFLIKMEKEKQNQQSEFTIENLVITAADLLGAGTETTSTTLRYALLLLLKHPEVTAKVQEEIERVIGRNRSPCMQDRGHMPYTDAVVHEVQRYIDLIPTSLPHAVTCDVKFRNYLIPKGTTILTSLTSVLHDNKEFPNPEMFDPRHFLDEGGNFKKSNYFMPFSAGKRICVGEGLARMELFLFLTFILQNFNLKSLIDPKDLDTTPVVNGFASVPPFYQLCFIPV
Sequence of hERG (KCNH2) (Q12809 whole entry): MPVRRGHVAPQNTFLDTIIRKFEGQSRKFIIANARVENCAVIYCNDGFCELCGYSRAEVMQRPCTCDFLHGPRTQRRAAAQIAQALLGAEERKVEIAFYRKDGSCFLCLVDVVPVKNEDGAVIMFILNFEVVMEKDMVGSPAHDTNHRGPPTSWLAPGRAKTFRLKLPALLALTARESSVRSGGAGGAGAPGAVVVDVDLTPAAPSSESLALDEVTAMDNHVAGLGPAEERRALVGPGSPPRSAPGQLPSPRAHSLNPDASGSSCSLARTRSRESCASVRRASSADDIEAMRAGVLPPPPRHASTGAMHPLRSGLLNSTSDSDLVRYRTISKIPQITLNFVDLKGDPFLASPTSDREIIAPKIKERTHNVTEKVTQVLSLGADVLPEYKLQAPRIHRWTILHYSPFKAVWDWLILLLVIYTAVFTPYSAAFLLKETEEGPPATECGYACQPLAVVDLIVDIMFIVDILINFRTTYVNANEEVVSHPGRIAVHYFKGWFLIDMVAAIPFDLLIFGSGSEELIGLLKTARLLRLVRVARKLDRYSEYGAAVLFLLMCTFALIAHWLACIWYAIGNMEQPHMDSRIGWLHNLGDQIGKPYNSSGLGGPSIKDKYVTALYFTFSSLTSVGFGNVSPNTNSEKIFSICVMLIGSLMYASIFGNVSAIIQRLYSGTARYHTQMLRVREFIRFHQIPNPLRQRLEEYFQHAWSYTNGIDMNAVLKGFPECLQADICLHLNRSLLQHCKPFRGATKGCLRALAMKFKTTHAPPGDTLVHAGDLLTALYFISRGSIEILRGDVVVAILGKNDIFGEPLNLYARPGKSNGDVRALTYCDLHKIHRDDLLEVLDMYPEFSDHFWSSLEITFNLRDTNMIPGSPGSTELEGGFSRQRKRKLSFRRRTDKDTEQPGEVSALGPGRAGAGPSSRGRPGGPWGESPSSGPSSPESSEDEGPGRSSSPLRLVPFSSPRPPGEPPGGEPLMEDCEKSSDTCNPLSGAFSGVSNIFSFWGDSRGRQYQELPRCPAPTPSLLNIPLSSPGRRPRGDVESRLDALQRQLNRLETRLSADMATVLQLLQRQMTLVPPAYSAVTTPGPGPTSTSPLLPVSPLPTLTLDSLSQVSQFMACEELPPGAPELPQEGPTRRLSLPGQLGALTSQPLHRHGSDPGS
Sequence of Voltage-gated inwardly rectifying potassium channel KCNH2 (Q12809 whole entry): as above
Sequence of CYP3A4 (P08684 whole entry): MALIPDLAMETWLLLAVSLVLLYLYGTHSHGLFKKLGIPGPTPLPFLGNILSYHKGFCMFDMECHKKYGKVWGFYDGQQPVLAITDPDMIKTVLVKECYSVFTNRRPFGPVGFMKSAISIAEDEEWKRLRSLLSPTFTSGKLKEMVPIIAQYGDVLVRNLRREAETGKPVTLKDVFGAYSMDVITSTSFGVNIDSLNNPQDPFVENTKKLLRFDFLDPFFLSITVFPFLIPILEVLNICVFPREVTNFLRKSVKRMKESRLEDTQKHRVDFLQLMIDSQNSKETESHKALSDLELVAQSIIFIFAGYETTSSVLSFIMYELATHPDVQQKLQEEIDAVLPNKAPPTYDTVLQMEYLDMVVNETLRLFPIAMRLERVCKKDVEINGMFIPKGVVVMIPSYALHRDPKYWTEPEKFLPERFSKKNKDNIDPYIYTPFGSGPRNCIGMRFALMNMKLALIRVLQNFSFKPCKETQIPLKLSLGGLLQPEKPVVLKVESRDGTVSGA

CS(=O)(=O)c1nc(Nc2ccc(F)c(Cl)c2)cc(N2CCNCC2)n1.Cl
AUC(0-inf) [1]: 2330 ng·h/mL | AUC(0-t) at 24 h [2]: 2370 ng·h/mL | clearance [3]: 70.8 mL/min/kg | half-life [4]: 3.3 h | Vd [5]: 10.9 L/kg | AUC(0-inf) [6]: 107 ng·h/mL | AUC(0-t) at 24 h [7]: 131 ng·h/mL | Cmax [8]: 25 ng/mL | half-life [9]: 7.8 h | Tmax [10]: 0.5 h | bioavailability [11]: 4.6%

CS(=O)(=O)c1nc(Nc2ccc(F)c(Cl)c2)cc(NC2CCC(N)CC2)n1 (stereo unspecified) [listing 1 of 2 here]
IC50 (Hepatitis B virus [12]): 0.181 µM | remaining at 0.5 h [13]: 79.6% | remaining at 0.5 h [14]: 82% | remaining at 0.5 h [15]: 81.7% | log(permeability) [16]: -5.15 | inhibition at 10 µM (CYP1A2): 37.2% | inhibition at 10 µM (CYP2C9): 51.8% | inhibition at 10 µM (CYP2C19): 71.4% | inhibition at 10 µM (CYP2D6): 21.7% | inhibition at 10 µM (CYP3A4): 44% | inhibition at 40 µM (hERG (KCNH2)): 76.6% | IC50 [17]: 19.8 µM | Activity [18]: Non-Toxic | Activity [19]: Non-Toxic | Activity [20]: Non-Toxic

CS(=O)(=O)c1nc(Nc2ccc(F)c(Cl)c2)cc(NC2CCC(N)CC2)n1.Cl (stereo unspecified)
AUC(0-inf) [6]: 270 ng·h/mL | AUC(0-t) at 24 h [7]: 203 ng·h/mL | Cmax [8]: 28.3 ng/mL | half-life [9]: 6.3 h | Tmax [10]: 1.8 h | bioavailability [11]: 4.8% | AUC(0-inf) [21]: 2410 ng·h/mL | AUC(0-t) at 24 h [22]: 2110 ng·h/mL | clearance [23]: 36.7 mL/min/kg | Cmax [24]: 9780 ng/mL | half-life [25]: 4.8 h | Vd [26]: 5.4 L/kg

CS(=O)(=O)c1nc(Nc2ccc(F)c(Cl)c2)cc(NC2CCC(N)CC2)n1 (stereo unspecified) [listing 2 of 2 here]
inhibition (Hepatitis B virus [27]): 99% | inhibition (Hepatitis B virus [28]): 52% | Activity (Hepatitis B virus [29]): Active | Activity (Hepatitis B virus [30]): Active | Activity (Hepatitis B virus [31]): inactive | inhibition (Huh-7 [32]): Active | inhibition (Huh-7 [33]): Active | Activity (Hepatitis B virus [34]): Active | Activity (Hepatitis B virus [35]): Active | Activity (Hepatitis B virus [36]): Active | Activity (Hepatitis B virus [37]): Active | Activity (Hepatitis B virus [38]): Dose-Dependent Effect | Activity (Hepatitis B virus [39]): Active
